Laboratory results: US7709645B2, “Pyrrolo-pyridine kinase modulators” (SGX Pharmaceuticals, Inc., priority 2004, dated 2010)
pIC50: −log10 of the molar value.

biological target: T1, Abl T315I kinase domain (unphosphorylated) (Mus musculus, UniProt P00520, T315I); test: Abl_T315I Bioassay (c-Abl PK/LDH coupled enzyme assay); type: biochemical; settings: 10 μM ATP
T1 construct: purified and unphosphorylated T315I Abl kinase domain; made in house; host or cells: E. coli BL21(DE3) strains
T1 sequence (P00520 242-493 T315I limits assumed): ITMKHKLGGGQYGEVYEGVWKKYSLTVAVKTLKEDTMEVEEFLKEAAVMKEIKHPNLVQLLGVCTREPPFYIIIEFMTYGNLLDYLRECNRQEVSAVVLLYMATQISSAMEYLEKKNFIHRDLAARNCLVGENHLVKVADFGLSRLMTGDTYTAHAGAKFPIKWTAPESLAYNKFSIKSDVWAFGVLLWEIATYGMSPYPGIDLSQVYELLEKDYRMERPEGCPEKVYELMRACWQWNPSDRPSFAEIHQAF
From the text: Although the first of these examples uses the kinase domain of a mutant form of Abl T315I (“Abl T315I KD”), the kinase assays may use various forms of mutant and wild type enzymes, including, for example, the entire protein, the kinase domain, or a portion thereof (e.g. Abl Y393F). The kinases used in the assays may also be of varying phosphorylation states. In the c-Abl example, a mutant kinase at a zero phosphorylation state was used.
In the c-Abl Pyruvate Kinase (PK)/Lactate Dehydrogenase (LDH) Coupled Assay the protein kinase dependant phosphorylation of a substrate peptide was coupled to the oxidation of NADH. The oxidation of NADH to NAD+ was detected by monitoring a decrease in absorbance at 340 nm.
Materials: Abl substrate peptide=EAIYAAPFAKKK (SEQ ID NO:1)-OH (Biopeptide, San Diego, Calif.); βNADH (Sigma Cat#N-8129, FW=709.4); 2M MgCl2; 1M HEPES buffer, pH 7.5; Phosphoenolpyruvate (PEP) (Sigma Cat#P-7002, FW=234); Lactate dehydrogenase (LDH) (Worthington Biochemical Cat#2756); Pyruvate Kinase (PK) (Sigma Cat#P-9136); ATP (Sigma Cat#A-3377, FW=551); Greiner 384-well UV star plate; and purified and unphosphorylated T315I Abl kinase domain.
Stock Solutions: 10 mM NADH (7.09 mg/ml in miliQH2O) made fresh daily; 10 mM Abl substrate peptide (13.4 mg/ml in miliQH2O) stored at −20° C.; 100 mM HEPES buffer, pH 7.5 (5 ml 1M stock+45 ml miliQH2O); 100 mM MgCl2 (5 ml 2M MgCl2+95 ml dH2O); 100 mM PEP (23.4 mg/ml in dH2O) stored at −20° C.; 10 mM ATP (5.51 mg/ml in dH2O) stored at −20° C. (diluted 50 μl into total of 10 ml miliQH2O daily=50 μM ATP working stock); 1000 U/ml PK (U/mg varies with lot) flash-frozen under liquid N2 and stored at −80° C.; and 1000 U/ml LDH (U/mg varies with lot) flash-frozen under liquid N2 and stored at −80° C.
Standard Assay Setup for 384-well format (50 μl reaction): 300 μM NADH; 10 mM MgCl2; 2 mM PEP; 45 U/ml PK; 60 U/ml LDH; 200 μM Abl substrate peptide; 2.5 μl test compound (in DMSO); 2 μg/ml Abl kinase domain; 10 μM ATP; 100 mM HEPES buffer. Positive controls contained DMSO with no test compound. Negative controls contained 5 μl of 0.5M EDTA (50 mM in the assay). The dephosphorylated form of the c-Abl T315I mutant was used in the biochemical screening assays. The kinase reaction was initiated at time t=0 by the addition of ATP.
Activity was measured by following the time-dependent loss of NADH by absorbance spectroscopy at 340 nm. The linear portion of the resulting progress curve was then analyzed by linear regression to get the activity in absorbance units/time, reported as the slope of that best fit line (moles/unit time can be calculated from using molar extinction coefficient for NADH at 340 nm, 6250M^−1 cm^−1).
Data was evaluated using the equation: Z′=1−[3*(σ++σ−)/|μ+−μ−|](Zhang, et al., 1999 J Biomol Screening 4(2) 67-73), where μ denotes the mean and σ the standard deviation. The subscript designates positive or negative controls. The Z′ score for a robust screening assay should be ≧0.50. The typical threshold=μ+−3*σ+. Any value that falls below the threshold was designated a “hit”.
Dose response was analyzed using the equation: y=min+{(max−min)/(1+10^[compound]−logIC50)}, where y is the observed initial slope, max=the slope in the absence of inhibitor, min=the slope at infinite inhibitor, and the IC50 is the [compound] that corresponds to ½ the total observed amplitude (Amplitude=max−min).
To measure modulation, activation, or inhibition of Abl KD, a test compound was added to the assay at a range of concentrations. Inhibitors may inhibit Abl KD activity at an IC50 in the micromolar range, the nanomolar range, or, for example, in the subnanomolar range.
An open-reading frame for c-Abl was amplified from a Mus musculus (mouse) cDNA library prepared from freshly harvested mouse liver using a commercially available kit (Invitrogen) by PCR using the following primers: […]
The c-Abl T315I KD (kinase domain) was purified as follows. […]

SMILES | pIC50
CNC(=O)c1cncc(-c2cnc3[nH]cc(-c4ccccc4OC)c3c2)c1 [AE1] | > 7.30
CNC(=O)c1cc(-c2cnc3[nH]cc(-c4ccccc4OC)c3c2)cs1 [AE2] | > 7.30
COc1ccccc1-c1c[nH]c2ncc(-c3csc(C(=O)N(C)C)c3)cc12 [AE3] | > 7.30
COc1ccccc1-c1c[nH]c2ncc(-c3ccc(CN(C)C)cc3)cc12 [AE8] | > 7.30
COc1ccccc1-c1c[nH]c2ncc(-c3cc[nH]c(=O)c3)cc12 [AE9] | > 7.30
COc1ccccc1-c1c[nH]c2ncc(-c3ccc4[nH]cc(CC(=O)O)c4c3)cc12 [AE10] | > 7.30
COc1ccccc1-c1c[nH]c2ncc(-c3ccc(S(N)(=O)=O)s3)cc12 [AE11] | > 7.30
COc1ccccc1-c1c[nH]c2ncc(-c3cccc(S(C)(=O)=O)c3)cc12 [AE13] | > 7.30
O=C(c1cncc(-c2cnc3[nH]cc(-c4ccc5cc[nH]c5c4)c3c2)c1)N1CCOCC1 [AE14] | > 7.30
N#Cc1cc(-c2cnc3[nH]cc(-c4ccc5[nH]ccc5c4)c3c2)ccc1O [AE20] | > 7.30
COc1ccccc1-c1c[nH]c2ncc(-c3ccc(S(N)(=O)=O)cc3)cc12 [AE21] | > 7.30
c1cc2cc(-c3c[nH]c4ncc(-c5ccc6[nH]cnc6c5)cc34)ccc2[nH]1 [AE22] | > 7.30
COc1ccccc1-c1c[nH]c2ncc(-c3ccc(O)c(CN4CCCN(C)CC4)c3)cc12 [AE41] | > 7.30

The remaining lines, values ahead:

pIC50 | SMILES
> 7.30 | COc1ccccc1-c1c[nH]c2ncc(-c3cccc(C(=N)N4CCCCC4)c3)cc12 [AE42]
> 7.30 | Oc1cccc(-c2cnc3[nH]cc(-c4ccc(O)c(F)c4)c3c2)c1 [AE48]
> 7.30 | Oc1cccc(-c2cnc3[nH]cc(-c4ccn[nH]4)c3c2)c1 [AE49]
> 7.30 | Nc1nc(-c2c[nH]c3ncc(-c4ccc5[nH]ccc5c4)cc23)cs1 [AE55]
> 7.30 | COc1cc(-c2cnc3[nH]cc(-c4ccc(O)cc4)c3c2)ccc1O [AE58]
> 7.30 | COc1cc(-c2cnc3[nH]cc(-c4ccccc4OC)c3c2)ccc1O [AE64]
> 7.30 | COc1cc(-c2cnc3[nH]cc(-c4ccccc4OC)c3c2)ccc1OCCN1CCCC1 [AE65]
> 7.30 | COc1ccccc1-c1c[nH]c2ncc(-c3ccc[nH]3)cc12 [AE67]
> 7.30 | COCCOc1ccc(-c2cnc3[nH]cc(-c4ccccc4OC)c3c2)cc1OCCOC [AE68]
